The test system of one assay is pancreatic cancer. The conditions noted are these: in combination with SBRT; cited from earlier work.
Assay [1] relates to 3T3 mouse fibroblast cells. The experiment in a line: MTS assay of radiosensitization after X-ray irradiation. The settings on record: 1 mM, 10 hours; X-rays at 4 and 6 Gy. The format is cell-based. The protocol:
Our initial evaluation of radiosensitization via intracellular GNP formation was performed with 3T3 mouse fibroblast cells. […] Radiosensitization with intracellular GNC formation (i.e., delivery of Au^3+) was compared with pre-fabricated albumin-coated GNCs (Albumin-GNC) prepared according to work by Xie^46 and control cells without treatment via MTS assay (FIG. 3B).
3T3 cells were first incubated with either 1 mM of sodium chloroaurate or albumin-GNCs (0.1 mM Au^0)in cell culture media for 10 hours. Then, the cells including the nontreated control were irradiated with X-rays at dosages of 0, 4 and 6 Gy in the X-ray X-RAD 225 CX irradiator system (Precision).
In our future studies we will use a standard clonogenic survival assay for quantitation of the radiosensitization effect.

For assay [2], the system named is pancreatic cancer cells (MIAPACA2). The experiment in a line: Confocal fluorescence imaging of in situ GNC synthesis. The format is cell-based, human. Here is the method: FIG. 4 presents fluorescence confocal images of non-cancerous (HPDE) and cancerous (MIAPaCa2) pancreatic cells treated with either 1 mM of Au^3+ gold ions or premade albumin-GNCs at 1 mM Au^0 for 24 hours. (From left to right) Cells: untreated; treated with albumin-GNCs; treated with Au^3+ gold ions. […] The strong red fluorescence in cancer cells indicated intracellular synthesis of GNCs from gold ions. Scale bars are 25 μm.
We compared in situ synthesis of GNCs by pancreatic cancer cells (MIAPACA2) and pancreatic noncancerous cells (HPDE) (FIG. 4). Confocal fluorescence images were obtained using a Leica TCS SP8 confocal microscope with 561 nm excitation and 610 nm emission optimized for detection of GNCs.

Each structure is given as a SMILES string.

For `Nc1ccn([C@@H]2O[C@H](CO)[C@@H](O)C2(F)F)c(=O)n1` [gemcitabine], in the assay on pancreatic cancer, the “overall survival (OS)” value was 13.9 months.

Take `[Cl][Au-]([Cl])([Cl])[Cl].[Na+]` [sodium chloroaurate]: the “radiosensitization by in situ synthetized GNCs as compared to Albumin-GNC control (MTS)” value in assay [1] is given as “significant increase in radiosensitization”. Besides, the “intracellular distribution of fluorescence from GNCs” value in assay [2] (MIAPACA2, optical sectioning) is recorded as “uniformly distributed throughout the intracellular space with a significant fraction in nuclei”. Further, the “GNC fluorescence / GNC formation” value in assay [2] (MIAPACA2, 1 mM, 24 hours, 561 nm excitation, 610 nm emission) was “striking increase in GNC formation”.
